# Data as given in patent US9708314B2, “Heterocyclic amide compound” (NISSAN CHEMICAL INDUSTRIES, LTD., priority 2013, dated 2017).
# Assays:
# Type in all cases: in vivo
# [1] = system: transplanted Oryza sativa; assay: Test Example 1: effect on crop, application before weed generation in submerged conditions; conditions: Application herbicide amount 320 g/ha; Seventeenth Table
# Summary of the method: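 Pre-emergence water-surface application under 4 cm flooding, same day as sowing, with rice transplanted at 2.5 leaf stage. Dose given as g/ha. Plants grown at 25° C. to 30° C. and rated three weeks later on a 0 (≤5%) to 5 (≥90%) herbicidal-ratio scale.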
# Lolium multiflorum Lam. = assay: Test Example 4: herbicidal effect by application to foliage (diluvial soil, plastic box); conditions: Application herbicide amount 320 g/ha; foliage application
# Summary of the method: (§1)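 Seeds sown in sterilized diluvial soil, covered ~1.5 cm, grown 14 days in greenhouse at 25° C. to 30° C. Emulsion formulation diluted in water to set rate (g/ha) and sprayed onto stems and leaves. Effect scored visually 3 weeks later on 0–5 scale (5 = ≥90% herbicidal ratio, 0 = ≤5%).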
# Avena fatua = assay: as above; conditions: Application herbicide amount 320 g/ha; foliage application
# Summary of the method: as §1
# Abutilon theophrasti = assay: as above; conditions: Application herbicide amount 320 g/ha; foliage application
# Summary of the method: as §1
# Digitaria ciliaris = assay: as above; conditions: Application herbicide amount 320 g/ha; foliage application
# Summary of the method: as §1
# Galium spurium = assay: as above; conditions: Application herbicide amount 320 g/ha; foliage application
# Summary of the method: as §1
# Chenopodium album = assay: as above; conditions: Application herbicide amount 320 g/ha; foliage application
# Summary of the method: as §1
# Alopecurus myosuroides = assay: as above; conditions: Application herbicide amount 320 g/ha; foliage application
# Summary of the method: as §1
# Setaria viridis = assay: as above; conditions: Application herbicide amount 320 g/ha; foliage application
# Summary of the method: as §1
# Apera spica-venti. = assay: as above; conditions: Application herbicide amount 320 g/ha; foliage application
# Summary of the method: as §1
# Veronica persica = assay: as above; conditions: Application herbicide amount 320 g/ha; foliage application
# Summary of the method: as §1
# [2] = system: Echinochloa crus-galli var. crus-galli; assay: as above; conditions: Application herbicide amount 320 g/ha; foliage application
# Summary of the method: as §1
# Amaranthus retroflexus = assay: as above; conditions: Application herbicide amount 320 g/ha; foliage application
# Summary of the method: as §1
# Stellaria media = assay: as above; conditions: Application herbicide amount 320 g/ha; foliage application
# Summary of the method: as §1
# Glycine max = assay: Test Example 4: effect on crop by application to foliage (diluvial soil, plastic box); conditions: Application herbicide amount 320 g/ha; foliage application
# Summary of the method: as §1
# Brassica campestris L. = assay: as above; conditions: Application herbicide amount 320 g/ha; foliage application
# Summary of the method: as §1
# [3] = system: directly sowed Oryza sativa; assay: as above; conditions: Application herbicide amount 320 g/ha; foliage application
# Summary of the method: as §1
# Zea mays = assay: as above; conditions: Application herbicide amount 320 g/ha; foliage application
# Summary of the method: as §1
# Triticum aestivum = assay: as above; conditions: Application herbicide amount 320 g/ha; foliage application
# Summary of the method: as §1
# [4] = system: Beta vulgaris ssp. vulgaris; assay: as above; conditions: Application herbicide amount 320 g/ha; foliage application
# Summary of the method: as §1
Compound,a: transplanted Oryza sativa (effect on crop grade) [1],K (Lolium multiflorum Lam.) herbicidal effect grade (Lolium multiflorum Lam.),I (Avena fatua) herbicidal effect grade (Avena fatua),M (Abutilon theophrasti) herbicidal effect grade (Abutilon theophrasti),F (Digitaria ciliaris) herbicidal effect grade (Digitaria ciliaris),Q (Galium spurium) herbicidal effect grade (Galium spurium),O (Chenopodium album) herbicidal effect grade (Chenopodium album),J (Alopecurus myosuroides) herbicidal effect grade (Alopecurus myosuroides),G (Setaria viridis) herbicidal effect grade (Setaria viridis),L (Apera spica-venti.) herbicidal effect grade (Apera spica-venti.),R (Veronica persica) herbicidal effect grade (Veronica persica),H (Echinochloa crus-galli var. crus-galli) herbicidal effect grade [2],N (Amaranthus retroflexus) herbicidal effect grade (Amaranthus retroflexus),P (Stellaria media) herbicidal effect grade (Stellaria media),d (Glycine max) effect on crop grade (Glycine max),g (Brassica campestris L.) effect on crop grade (Brassica campestris L.),b (directly sowed Oryza sativa) effect on crop grade [3],c (Zea mays) effect on crop grade (Zea mays),e (Triticum aestivum) effect on crop grade (Triticum aestivum),f (Beta vulgaris ssp. vulgaris) effect on crop grade [4]
Cc1nnc(NC(=O)c2ccc(C(F)(F)F)n3c(N4CCSCC4)nnc23)o1 [1-118],2 (Herbicidal ratio of 20% or more and less than 40%),1 (Herbicidal ratio of 5% or more and less than 20%),3 (Herbicidal ratio of 40% or more and less than 70%),4 (Herbicidal ratio of 70% or more and less than 90%),5 (Herbicidal ratio of 90% or more (almost completely withered)),4 (Herbicidal ratio of 70% or more and less than 90%),5 (Herbicidal ratio of 90% or more (almost completely withered)),1 (Herbicidal ratio of 5% or more and less than 20%),5 (Herbicidal ratio of 90% or more (almost completely withered)),3 (Herbicidal ratio of 40% or more and less than 70%),5 (Herbicidal ratio of 90% or more (almost completely withered)),5 (Herbicidal ratio of 90% or more (almost completely withered)),4 (Herbicidal ratio of 70% or more and less than 90%),4 (Herbicidal ratio of 70% or more and less than 90%),4 (Herbicidal ratio of 70% or more and less than 90%),5 (Herbicidal ratio of 90% or more (almost completely withered)),4 (Herbicidal ratio of 70% or more and less than 90%),0 (Herbicidal ratio of 5% or less (almost no effect)),1 (Herbicidal ratio of 5% or more and less than 20%),5 (Herbicidal ratio of 90% or more (almost completely withered))
Cc1nnc(NC(=O)c2ccc(C(F)(F)F)n3c(N4CC[S+]([O-])CC4)nnc23)o1 [1-119],3 (Herbicidal ratio of 40% or more and less than 70%),2 (Herbicidal ratio of 20% or more and less than 40%),3 (Herbicidal ratio of 40% or more and less than 70%),5 (Herbicidal ratio of 90% or more (almost completely withered)),5 (Herbicidal ratio of 90% or more (almost completely withered)),4 (Herbicidal ratio of 70% or more and less than 90%),5 (Herbicidal ratio of 90% or more (almost completely withered)),3 (Herbicidal ratio of 40% or more and less than 70%),4 (Herbicidal ratio of 70% or more and less than 90%),3 (Herbicidal ratio of 40% or more and less than 70%),5 (Herbicidal ratio of 90% or more (almost completely withered)),5 (Herbicidal ratio of 90% or more (almost completely withered)),5 (Herbicidal ratio of 90% or more (almost completely withered)),4 (Herbicidal ratio of 70% or more and less than 90%),4 (Herbicidal ratio of 70% or more and less than 90%),5 (Herbicidal ratio of 90% or more (almost completely withered)),3 (Herbicidal ratio of 40% or more and less than 70%),2 (Herbicidal ratio of 20% or more and less than 40%),3 (Herbicidal ratio of 40% or more and less than 70%),5 (Herbicidal ratio of 90% or more (almost completely withered))
Cc1nnc(NC(=O)c2ccc(C(F)(F)F)n3c(N4CCS(=O)(=O)CC4)nnc23)o1 [1-120],3 (Herbicidal ratio of 40% or more and less than 70%),3 (Herbicidal ratio of 40% or more and less than 70%),3 (Herbicidal ratio of 40% or more and less than 70%),4 (Herbicidal ratio of 70% or more and less than 90%),5 (Herbicidal ratio of 90% or more (almost completely withered)),5 (Herbicidal ratio of 90% or more (almost completely withered)),5 (Herbicidal ratio of 90% or more (almost completely withered)),3 (Herbicidal ratio of 40% or more and less than 70%),5 (Herbicidal ratio of 90% or more (almost completely withered)),5 (Herbicidal ratio of 90% or more (almost completely withered)),5 (Herbicidal ratio of 90% or more (almost completely withered)),5 (Herbicidal ratio of 90% or more (almost completely withered)),5 (Herbicidal ratio of 90% or more (almost completely withered)),5 (Herbicidal ratio of 90% or more (almost completely withered)),4 (Herbicidal ratio of 70% or more and less than 90%),5 (Herbicidal ratio of 90% or more (almost completely withered)),2 (Herbicidal ratio of 20% or more and less than 40%),0 (Herbicidal ratio of 5% or less (almost no effect)),3 (Herbicidal ratio of 40% or more and less than 70%),5 (Herbicidal ratio of 90% or more (almost completely withered))
